From ChEMBL document CHEMBL1201862, “PubChem BioAssay data set” (2004)
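All cell lines were grown in 96-well plates and treated with compound for 48 hours. GI50: concentration for 50% inhibition of growth.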 Active and inactive are the calls of the source. Rule as the data show it: active = GI50 up to about 1.1 µM and inactive = higher.

What was measured:
Assay in all cases: NCI anticancer screen, dose series, 48 h
786-0 = system: 786-0
A549 = system: A549
HCT-15 = system: HCT-15
HOP-92 = system: HOP-92
HT-29 = system: HT-29
MOLT-4 = system: MOLT-4
NCI-H522 = system: NCI-H522
OVCAR-4 = system: OVCAR-4
RXF 393 = system: RXF 393
SK-MEL-28 = system: SK-MEL-28
SK-MEL-5 = system: SK-MEL-5
SN12C = system: SN12C
CAKI-1 = system: CAKI-1
K562 = system: K562
SNB-75 = system: SNB-75
SR = system: SR
TK-10 = system: TK-10
UO-31 = system: UO-31

Row | SMILES | GI50 (786-0) | GI50 (A549) | GI50 (HCT-15) [µM] | GI50 (HOP-92) | GI50 (HT-29) | GI50 (MOLT-4) | GI50 (NCI-H522) | GI50 (OVCAR-4) | GI50 (RXF 393) | GI50 (SK-MEL-28) | GI50 (SK-MEL-5) | GI50 (SN12C) | GI50 (CAKI-1) | GI50 (K562) | GI50 (SNB-75) | GI50 (SR) | GI50 (TK-10) | GI50 (UO-31)
1 | COc1ccc(NCc2cc(OC)c(OC)c(OC)c2)cc1 | 0.647 µM (active) | 0.578 µM (active) | 0.217 | 2.15 µM (inactive) | 0.176 µM (active) | 0.451 µM (active) | 0.372 µM (active) | 21.4 µM (inactive) | 0.342 µM (active) | 0.275 µM (active) | 0.207 µM (active) | 0.53 µM (active) | – | – | – | – | – | –
2 | O=c1oc2ccccc2c(O)c1C(C/C(CCN1CCCC1)=N\Nc1ccccc1)c1ccccc1 (stereo not drawn) | > 100 µM (inactive) | > 100 µM (inactive) | 52.2 | 16.3 µM (inactive) | 62.8 µM (inactive) | – | 51.2 µM (inactive) | 97.7 µM (inactive) | 32.7 µM (inactive) | – | 46.3 µM (inactive) | 74.6 µM (inactive) | > 100 µM (inactive) | 46.2 µM (inactive) | > 100 µM (inactive) | 31.2 µM (inactive) | > 100 µM (inactive) | 53.5 µM (inactive)
3 | CCN1CCC(O)(c2ccc(C)cc2)C(C(=O)c2ccc(C)cc2)C1 (stereo not drawn) | 13.5 µM (inactive) | > 75.9 µM (inactive) | 19.6 | 19.7 µM (inactive) | 19.8 µM (inactive) | 29 µM (inactive) | 1.94 µM (inactive) | 21.5 µM (inactive) | – | 23.9 µM (inactive) | > 42.3 µM (inactive) | 14.9 µM (inactive) | 17.2 µM (inactive) | 32.1 µM (inactive) | 71.9 µM (inactive) | 23.9 µM (inactive) | > 44.5 µM (inactive) | 28.2 µM (inactive)
4 | Nc1nc(CCl)nc(Nc2ccccc2)n1 | 2 µM (inactive) | 26.2 µM (inactive) | – | 18.2 µM (inactive) | 12.5 µM (inactive) | 15.8 µM (inactive) | 1.75 µM (inactive) | 17.4 µM (inactive) | – | 15.8 µM (inactive) | 17.5 µM (inactive) | – | 12.4 µM (inactive) | > 10 µM (inactive) | 6.24 µM (inactive) | 12.9 µM (inactive) | 24 µM (inactive) | 28.5 µM (inactive)
5 | C/C(CCn1[nH]c(=O)ccc1=O)=N\N=C(N)N | > 100 µM (inactive) | > 100 µM (inactive) | > 100 | > 100 µM (inactive) | > 100 µM (inactive) | > 100 µM (inactive) | – | > 100 µM (inactive) | > 100 µM (inactive) | > 100 µM (inactive) | > 100 µM (inactive) | > 100 µM (inactive) | > 100 µM (inactive) | > 100 µM (inactive) | > 100 µM (inactive) | > 100 µM (inactive) | > 100 µM (inactive) | > 100 µM (inactive)
6 | Cc1ccc(S(=O)(=O)N(CC(=O)O)c2ccccc2)cc1 | > 100 µM (inactive) | > 100 µM (inactive) | > 100 | > 100 µM (inactive) | > 100 µM (inactive) | > 100 µM (inactive) | > 100 µM (inactive) | > 100 µM (inactive) | > 100 µM (inactive) | > 100 µM (inactive) | > 100 µM (inactive) | > 100 µM (inactive) | > 100 µM (inactive) | > 100 µM (inactive) | > 100 µM (inactive) | – | > 100 µM (inactive) | > 100 µM (inactive)
7 | COc1cc(Nc2cnc3cc(N)ccc3n2)cc(OC)c1OC | > 100 µM (inactive) | > 100 µM (inactive) | 55.2 | > 100 µM (inactive) | 62.5 µM (inactive) | 52.2 µM (inactive) | 57.5 µM (inactive) | > 100 µM (inactive) | – | > 100 µM (inactive) | 69 µM (inactive) | 94.6 µM (inactive) | 83.4 µM (inactive) | 42.3 µM (inactive) | > 100 µM (inactive) | 44.1 µM (inactive) | > 100 µM (inactive) | 61.2 µM (inactive)
8 | COc1ccccc1NC(=O)C1=C(C)NC(C)=C(C(=O)Nc2ccccc2OC)C1c1ccccc1[N+](=O)[O-] | 17.4 µM (inactive) | > 100 µM (inactive) | 14.3 | 25.6 µM (inactive) | 18.7 µM (inactive) | 14.3 µM (inactive) | 13.1 µM (inactive) | 18.9 µM (inactive) | > 100 µM (inactive) | 17.5 µM (inactive) | 24.8 µM (inactive) | 16.6 µM (inactive) | – | 20.6 µM (inactive) | 42.1 µM (inactive) | 11.5 µM (inactive) | 22.5 µM (inactive) | 19.4 µM (inactive)
9 | COc1cc(C=O)c(-c2c(C=O)ccc3c2OCO3)c(OC)c1OC | > 100 µM (inactive) | > 100 µM (inactive) | 80.4 | – | 69.2 µM (inactive) | 76.2 µM (inactive) | 88.5 µM (inactive) | > 100 µM (inactive) | – | 74.6 µM (inactive) | > 100 µM (inactive) | > 100 µM (inactive) | 31.9 µM (inactive) | 37.2 µM (inactive) | 55.2 µM (inactive) | 29.6 µM (inactive) | > 100 µM (inactive) | > 100 µM (inactive)
10 | Cc1cc(C)cc(Sc2c([N+](=O)[O-])ncn2C)c1 | 24 µM (inactive) | 26.6 µM (inactive) | – | 17.2 µM (inactive) | 16.2 µM (inactive) | 5.79 µM (inactive) | 6.64 µM (inactive) | 15.4 µM (inactive) | – | 15.2 µM (inactive) | 13.8 µM (inactive) | 16.4 µM (inactive) | 25.9 µM (inactive) | 11.2 µM (inactive) | 21.3 µM (inactive) | 10.5 µM (inactive) | 23 µM (inactive) | 13.7 µM (inactive)
11 | O=C(c1ccccc1)C(C(=O)c1ccccc1)C1(O)C(=O)c2ccccc2C1=O | 26.9 µM (inactive) | 29.3 µM (inactive) | 44.2 | 25.8 µM (inactive) | 39.7 µM (inactive) | 19.8 µM (inactive) | 14.1 µM (inactive) | – | 0.253 µM (active) | 3.6 µM (inactive) | > 10 µM (inactive) | 27.8 µM (inactive) | – | 15.8 µM (inactive) | 24.8 µM (inactive) | 29.1 µM (inactive) | 3.01 µM (inactive) | 36.1 µM (inactive)
12 | CC1=C(C(=O)Nc2ccccc2C)C(c2ccc(N(C)C)cc2)C(C(=O)Nc2ccccc2C)=C(C)N1 | 72.3 µM (inactive) | 94 µM (inactive) | 67.9 | – | > 100 µM (inactive) | 26.8 µM (inactive) | 37.8 µM (inactive) | – | 35.5 µM (inactive) | 74.8 µM (inactive) | 38.5 µM (inactive) | 83.6 µM (inactive) | – | 26.2 µM (inactive) | – | – | > 100 µM (inactive) | 55.2 µM (inactive)
13 | CC(C)(C)C1CC[C@H]2c3c([nH]c4ccccc34)[C@H]3C(=O)N(c4ccc(F)cc4)C(=O)[C@H]3[C@H]2C1 (stereo partly drawn) | 11.3 µM (inactive) | 12 µM (inactive) | 20.7 | 28.1 µM (inactive) | – | 13.2 µM (inactive) | 12.4 µM (inactive) | 11.2 µM (inactive) | 27.4 µM (inactive) | 23.6 µM (inactive) | 18.7 µM (inactive) | 11.1 µM (inactive) | 17.9 µM (inactive) | 20.7 µM (inactive) | 10.5 µM (inactive) | – | 16.3 µM (inactive) | 15.8 µM (inactive)
14 | CCNC(=O)c1ccc(C)c(/N=N/N(C)C)c1 | > 100 µM (inactive) | > 100 µM (inactive) | > 100 | > 100 µM (inactive) | > 100 µM (inactive) | – | 81.1 µM (inactive) | > 100 µM (inactive) | – | > 100 µM (inactive) | > 100 µM (inactive) | > 100 µM (inactive) | > 100 µM (inactive) | – | – | – | > 100 µM (inactive) | > 100 µM (inactive)
15 | O=[N+]([O-])c1ccccc1C1SCc2nc3ccccc3n21 (stereo not drawn) | > 100 µM (inactive) | 52.4 µM (inactive) | – | 48 µM (inactive) | > 100 µM (inactive) | 44 µM (inactive) | > 100 µM (inactive) | > 100 µM (inactive) | > 100 µM (inactive) | > 100 µM (inactive) | 18.3 µM (inactive) | 83.9 µM (inactive) | 78.3 µM (inactive) | 45.5 µM (inactive) | – | 85.3 µM (inactive) | 79.1 µM (inactive) | 31.6 µM (inactive)
16 | Nc1ccc(C(=O)NN2C(=O)C(Cl)C2c2cc(Br)cc(Br)c2O)cc1 (stereo not drawn) | 8.3 µM (inactive) | 14.3 µM (inactive) | 3.78 | 24.2 µM (inactive) | 34.9 µM (inactive) | 4.89 µM (inactive) | 6.75 µM (inactive) | 10.3 µM (inactive) | 13.3 µM (inactive) | 22.9 µM (inactive) | 16.5 µM (inactive) | – | 3.66 µM (inactive) | – | 18 µM (inactive) | 24.3 µM (inactive) | 32.2 µM (inactive) | 3.34 µM (inactive)
17 | Nc1nc(N)c(-c2ccccc2)c(C(=O)Nc2ccccc2)n1 | > 100 µM (inactive) | > 100 µM (inactive) | > 100 | > 100 µM (inactive) | > 100 µM (inactive) | > 100 µM (inactive) | > 100 µM (inactive) | > 100 µM (inactive) | > 100 µM (inactive) | > 100 µM (inactive) | > 100 µM (inactive) | > 100 µM (inactive) | > 100 µM (inactive) | > 100 µM (inactive) | > 100 µM (inactive) | – | > 100 µM (inactive) | > 100 µM (inactive)
18 | CC1(CO)OC(n2cc(C(=O)NC(=O)OCc3ccccc3)c(=O)[nH]c2=O)CC1O (stereo not drawn) | > 100 µM (inactive) | > 100 µM (inactive) | > 100 | > 100 µM (inactive) | > 100 µM (inactive) | > 100 µM (inactive) | > 100 µM (inactive) | – | – | > 100 µM (inactive) | > 100 µM (inactive) | > 100 µM (inactive) | > 100 µM (inactive) | > 100 µM (inactive) | 84.5 µM (inactive) | > 100 µM (inactive) | > 100 µM (inactive) | > 100 µM (inactive)
